Results on two compounds are retold here after paper PMC9814779, “A triple farnesoid X receptor and peroxisome proliferator-activated receptor α/δ activator reverses hepatic fibrosis in diet-induced NASH in mice” (Communications Chemistry, 2020).

Data set [1] deals with FXR- and PPAR-regulated gene expression in HepG2 cells. Description: FXR- and PPAR-regulated gene expression in HepG2 cells (qRT-PCR). Conditions: 12 h. Format: cell-based, human. How it is done:
HepG2 cells (DSMZ) were grown in DMEM high glucose, supplemented with 10% FCS, 1 mM SP, penicillin (100 U/mL), and streptomycin (100 μg/mL) at 37 °C and 5% CO2 and seeded in 6-well plates (2 × 10^6 per well). After 24 h, medium was changed to Minimal Essential Medium supplemented with 1% charcoal-stripped FCS, penicillin (100 U/mL), streptomycin (100 μg/mL), and 2 mM L-glutamine. After an additional 24 h, cells were incubated with test compound 41 (0.1 µM, 0.3 µM, 1 μM), OCA (1 μM), or elafibranor (1 µM) dissolved in the same medium with 0.1% DMSO or medium with 0.1% DMSO alone as untreated control for 12 h, harvested, washed with cold phosphate-buffered saline (PBS), and then directly used for RNA extraction. C2C12 cells (American Type Culture Collection, ATCC) were grown in DMEM high glucose, supplemented with 10% FCS, 1 mM SP, penicillin (100 U/mL), and streptomycin (100 μg/mL) at 37 °C and 5% CO2 and seeded in 6-well plates (1 × 10^6 per well). Upon reaching confluence, medium was changed to Eagle’s Minimal Essential Medium supplemented with 2% horse serum, penicillin (100 U/mL), streptomycin (100 μg/mL), and 2 mM L-glutamine. Cells were then differentiated in this medium for 5 days before incubation with test compounds 41 (1 μM) or L165,041 (1 μM) dissolved in the same medium with 0.1% DMSO or medium with 0.1% DMSO alone as untreated control for 8 h. Cells were harvested, washed with cold PBS, and then directly used for RNA extraction. Total RNA was extracted from HepG2 cells or C2C12 cells using the total RNA Mini Kit (R6834-02, Omega Bio-Tek, Inc., Norcross, GA, USA). Two micrograms of extracted RNA were then reverse-transcribed into cDNA with the High-Capacity cDNA Reverse Transcription Kit (4368814, Thermo Fischer Scientific, Inc.). FXR- and PPAR-regulated gene expression was then studied by quantitative real-time PCR (qRT-PCR) analysis with a StepOnePlus System (Life Technologies, Carlsbad, CA, USA) using PowerSYBRGreen (Life Technologies; 12.5 μL per well). Each sample was set up in duplicates and repeated in four independent experiments. Data were analyzed by the comparative ΔΔCT method with glyceraldehyde 3-phosphate dehydrogenase (GAPDH) as reference gene. The following primers were used for HepG2 cells (human genes): hGAPDH: 5 ′-ATATGATTCCACCCATGGCA (fw), 5′-GATGATGACCCTTTTGGCTC (rev); hSHP: 5′-GCTGTCTGGAGTCCTTCTGG (fw), 5′-CCAATGATAGGGCGAAAGAAGAG (rev); hCYP7A1: 5′-CACCTTGAGGACGGTTCCTA (fw), 5′-CGATCCAAAGGGCATGTAGT (rev); hBSEP: 5′-CATGGTGCAAGAAGTGCTGAGT (fw), 5′-AAGCGATGAGCAACTGAAATGAT (rev); hACOX: 5′-ACT CGC AGC CAG CGT TAT G (fw), 5′-AGG GTC AGC GAT GCC AAA C (rev); hPDK4: 5′-AGAGCCTGATGGATTTGGTG (fw), 5′-GCTTGGGTTTCCTGTCTGTG (rev); hCPT1: 5′-ACAGTCGGTGAGGCCTCTTAT (fw), 5′-TCTTGCTGCCTGAATGTGAGT (rev); hFGF21: 5′-ATGGATCGCTCCACTTTGACC (fw), 5′-GGGCTTCGGACTGGTAAACAT (rev). The following primers were used for C2C12 cells (murine genes)[36]: mGAPDH: 5′-CGACTTCAACAGCAACTCCCACTCTTCC (fw), 5′-TGGGTGGTCCAGGGTTTCTTACTCCTT (rev); mPCK: 5′-TGTTTACTGGGAAGGCATCG (fw), 5′-CAGAATCTCGAGTTGGGATGG (rev); mGLUT3: 5′-CGTCCTTGAAGATTCCTGTTGA (fw), 5′-GTC ACC CAA CTA CGT CCA G (rev); mLPL: 5′-GTCAGGTTCTCTCTTGTACAGG (fw), 5′-TCTAACTGCCACTTCAACCAC (rev).

In data set [2] the target is T1, human PPARδ ligand-binding domain (Gal4 chimera) (Homo sapiens, UniProt Q03181).
T1 construct: coding for the hinge region and LBD of the canonical isoform of the respective nuclear receptor; expressed in transfected cells; host or cells: HEK293T
T1 sequence (Q03181 211-439 limits assumed): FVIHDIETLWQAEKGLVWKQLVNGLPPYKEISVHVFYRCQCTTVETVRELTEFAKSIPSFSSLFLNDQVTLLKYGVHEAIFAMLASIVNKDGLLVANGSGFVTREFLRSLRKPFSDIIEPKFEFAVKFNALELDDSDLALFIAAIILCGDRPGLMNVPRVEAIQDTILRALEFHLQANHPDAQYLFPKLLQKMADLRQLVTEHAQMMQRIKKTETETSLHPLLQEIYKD
Kind of data set: Gal4 hybrid reporter gene assay, PPARδ. Format: cell-based. The arrangement: Emax: dose or concentration left out as unconfirmed. On the technique in general: Reporter assays use an easily measured gene product as a stand-in for the process of interest.

The nature of data set [3]: Microsomal stability assay. Format: in vitro ADME, rat.
The target in data set [4] is T2, human PPARα ligand-binding domain (Gal4 chimera) (Homo sapiens, UniProt Q07869).
T2 construct: coding for the hinge region and LBD of the canonical isoform of the respective nuclear receptor; expressed in transfected cells; host or cells: HEK293T
T2 sequence (Q07869 239-466 limits assumed): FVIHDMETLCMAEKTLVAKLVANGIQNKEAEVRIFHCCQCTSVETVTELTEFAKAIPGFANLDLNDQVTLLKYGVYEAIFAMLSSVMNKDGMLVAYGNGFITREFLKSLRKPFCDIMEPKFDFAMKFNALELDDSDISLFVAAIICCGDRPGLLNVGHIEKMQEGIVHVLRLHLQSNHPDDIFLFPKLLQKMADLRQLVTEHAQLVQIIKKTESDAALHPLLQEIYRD
Description: Gal4 hybrid reporter gene assay, PPARα. The class given is cell-based. On the set-up: Emax: dose or concentration left out as unconfirmed.

Setting [5] is: HepG2, 1 µM, vs. vehicle-treated cells.
[6] abbreviates: 10 μM, rat liver microsomes, 37 °C, 41 n = 3, 7-EC n = 1.

As to `CC[C@H]1[C@@H](O)[C@@H]2[C@H](CC[C@]3(C)[C@@H]([C@H](C)CCC(=O)O)CC[C@@H]23)[C@@]2(C)CC[C@@H](O)C[C@@H]12` [OCA, 6α-ethylchenodeoxycholic acid, reference compound], in data set [1] (setting [5]), the “mRNA expression of FXR-regulated genes (BSEP, SHP, CYP7A1)” value is “upregulation of BSEP and small heterodimer partner (SHP) mRNA as well as downregulation of CYP7A1”; the “mRNA expression of PPAR-regulated genes (ACOX, PDK4, CPT1, FGF21)” value was “slightly induced ACOX and FGF21 expression”.
Broadly, the EC50 is the concentration giving half of the maximal effect. As to `CC(C)(C)c1ccc(C(=O)Nc2cccc(CCC(=O)O)c2)c(NC(=O)c2ccc(-c3ccco3)cc2)c1` [compound 41, 3-(3-[4-{tert-Butyl}-2-{4-(2-furyl)}benzamido]phenyl)propanoic acid], the half-maximal effective concentration (EC50) stood at 0.14 ± 0.01 µM in data set [2] (EC50 [μM] PPARδ, HEK293T, mean ± SEM, n = 3); 0.141 µM in data set [2] (PPARδ EC50, as stated in text); 0.17 ± 0.04 µM in data set [4] (EC50 [μM] PPARα, HEK293T, mean ± SEM, n = 3); 0.168 µM in data set [4] (PPARα EC50, as stated in text). Also, the Emax in data set [2] (read-out: max. rel. act. PPARδ) is 34%; in data set [4] (read-out: max. rel. act. PPARα), 72%. Moreover, the “percent of remaining compound, 15 min” value in data set [3] (setting [6]) is 95 ± 3%. Also, the “percent of remaining compound, 30 min” value in data set [3] (setting [6]) is listed as 95 ± 2%. Moreover, in data set [3] (setting [6]), the “percent of remaining compound, 60 min” value was 93 ± 2%. In data set [3] (in words), the “stability against microsomal degradation” value was “very high stability against microsomal degradation”. Further, the “dose dependence of BSEP, PDK4 and CPT1 expression” value in data set [1] (HepG2, 0.1 µM, 0.3 µM, 1 μM) is listed as “dose-dependent effects”. Besides, the “mRNA expression of FXR-regulated genes (BSEP, SHP, CYP7A1)” value in data set [1] (setting [5]) is “upregulation of BSEP and small heterodimer partner (SHP) mRNA as well as downregulation of CYP7A1”.
